In ChEMBL document CHEMBL1821627, “Medicinal chemistry as a conduit for the modulation of quorum sensing” (J Med Chem, 2010):
Where a SMILES comes first, the peptide text is derived from it. Bridges are numbered along the chain shown (N, C = ends). [ ]: non-standard residue; d: D form. NMeF = CN[C@@H](Cc1ccccc1)C(=O)O; NMeL = CN[C@@H](CC(C)C)C(=O)O; Dap = NC[C@H](N)C(=O)O; Ava = NCCCCC(=O)O

What was measured:
[1] = Inhibition of quorum sensing in Pseudomonas aeruginosa assessed as inhibition of LasR-dependent yellow fluorescent protein emission by luminescence assay
[2] = Inhibition of Staphylococcus aureus Quorum sensing system AgrC-II activation after 60 to 90 minutes by beta-lactamase reporter assay
[3] = Inhibition of Staphylococcus aureus Quorum sensing system AgrC-I activation after 60 to 90 minutes by beta-lactamase reporter assay
Aliivibrio fischeri = test: Induction of quorum sensing regulated bioluminescence in Vibrio fischeri by luminescence assay relative to natural autoinducer
[4] = Inhibition of quorum sensing regulated bioluminescence in Vibrio harveyi
[5] = target: T1, Transcriptional activator protein LasR (Pseudomonas aeruginosa (strain ATCC 15692 / PAO1 / 1C / PRS 101 / LMG12228), UniProt P25084); test: Agonist activity at Pseudomonas aeruginosa LasR cognate receptor expressed in Escherichia coli harboring pKDT17 assessed as activation of lasB expression by LacZ reporter gene assay; type: functional
T1 sequence (P25084 whole entry): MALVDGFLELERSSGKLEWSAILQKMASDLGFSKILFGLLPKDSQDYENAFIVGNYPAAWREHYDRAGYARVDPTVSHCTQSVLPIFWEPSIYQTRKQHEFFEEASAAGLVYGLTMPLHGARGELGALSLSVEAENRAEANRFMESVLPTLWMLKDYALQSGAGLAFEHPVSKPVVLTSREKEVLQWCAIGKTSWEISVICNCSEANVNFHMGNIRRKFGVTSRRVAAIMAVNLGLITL

[6] = Inhibition of autoinducer-stimulated quorum sensing regulated bioluminescence in Vibrio fischeri by luminescence assay; design: species or system Aliivibrio fischeri
[7] = Inhibition of quorum sensing Salmonella Typhimurium by beta-galactosidase transcription assay in presence of 50 uM DPD; design: species or system Salmonella enterica subsp. enterica serovar Typhimurium
[8] = test system: Salmonella enterica subsp. enterica serovar Typhimurium; test: Ratio of compound IC50 to DPD IC50 for Salmonella Typhimurium quorum sensing system
[9] = target: T2, Autoinducer 1 sensor kinase/phosphatase LuxN (Vibrio harveyi, UniProt P0C5S6); test: Inhibition of LuxN-dependent bioluminescence in Vibrio harveyi
T2 sequence (P0C5S6 whole entry): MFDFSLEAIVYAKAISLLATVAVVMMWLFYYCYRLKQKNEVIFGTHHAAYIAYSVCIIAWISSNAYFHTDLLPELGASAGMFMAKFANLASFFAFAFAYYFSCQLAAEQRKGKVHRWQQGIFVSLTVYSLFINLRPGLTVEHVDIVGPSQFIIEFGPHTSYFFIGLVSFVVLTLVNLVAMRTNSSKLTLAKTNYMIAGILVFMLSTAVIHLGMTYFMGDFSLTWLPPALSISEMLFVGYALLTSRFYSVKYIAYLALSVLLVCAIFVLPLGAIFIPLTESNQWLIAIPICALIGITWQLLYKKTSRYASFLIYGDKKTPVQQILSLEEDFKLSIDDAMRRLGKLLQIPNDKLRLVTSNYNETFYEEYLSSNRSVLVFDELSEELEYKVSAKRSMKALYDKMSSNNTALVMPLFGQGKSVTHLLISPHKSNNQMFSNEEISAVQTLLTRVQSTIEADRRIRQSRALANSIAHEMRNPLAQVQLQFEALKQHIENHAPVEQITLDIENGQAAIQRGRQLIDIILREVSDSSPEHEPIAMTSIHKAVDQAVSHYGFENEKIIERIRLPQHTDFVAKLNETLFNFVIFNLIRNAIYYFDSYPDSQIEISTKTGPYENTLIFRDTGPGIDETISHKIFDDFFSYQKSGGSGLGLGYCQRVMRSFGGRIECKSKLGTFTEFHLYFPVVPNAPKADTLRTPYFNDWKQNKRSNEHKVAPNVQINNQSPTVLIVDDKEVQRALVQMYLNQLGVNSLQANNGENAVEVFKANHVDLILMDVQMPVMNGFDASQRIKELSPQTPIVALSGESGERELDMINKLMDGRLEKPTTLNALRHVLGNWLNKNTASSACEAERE

[10] = test system: Chromobacterium violaceum; test: In vivo inhibition of violacein production in Chromobacterium violaceum; type: functional, organism-based
[11] = target: T3, Transcriptional activator protein LuxR (Aliivibrio fischeri, UniProt P12746); test: Antagonist activity at Vibrio fischeri luxR receptor in presence of 5 uM 3-oxo-C6-HSL; type: functional
T3 sequence (P12746 whole entry): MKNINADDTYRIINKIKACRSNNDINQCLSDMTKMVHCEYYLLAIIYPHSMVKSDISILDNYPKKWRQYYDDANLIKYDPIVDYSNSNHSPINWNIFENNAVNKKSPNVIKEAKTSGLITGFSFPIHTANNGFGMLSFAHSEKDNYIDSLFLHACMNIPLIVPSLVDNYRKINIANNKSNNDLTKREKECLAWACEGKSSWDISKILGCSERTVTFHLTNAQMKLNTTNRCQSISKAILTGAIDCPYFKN

Vibrio harveyi = test: Induction of quorum sensing regulated bioluminescence in Vibrio harveyi by luminescence assay
[12] = target: T1, Transcriptional activator protein LasR; test: Antagonist activity at Pseudomonas aeruginosa LasR receptor assessed as inhibition of bioluminescence by reporter gene assay; type: functional

SMILES: CCCCCCCCCCCCn1nnc(CC(=O)O)n1
- IC50 [1]: 0.03 µM

SMILES: CCCCCCCCCNC(=O)CC(=O)c1ccccc1
- IC50 [1]: 10 µM

SMILES: CC(=O)N[C@H]1CSC(=O)[C@H](Cc2ccccc2)NC(=O)[C@H](CC(C)C)N(C)C(=O)[C@H](CO)NC(=O)[C@H](CO)NC1=O (Ac-CSS[NMeL]F; thioester 1-C)
- IC50 [2]: Not Active
- IC50 [3]: Not Active

SMILES: CC(=O)CCCC(=O)N[C@H]1CCOC1=O
- Activity (Aliivibrio fischeri): 10%

SMILES: O=C(c1ccccc1)c1ccc(O)c(O)c1O
- IC50 [4]: 4 µM

SMILES: NC(=S)CS(=O)(=O)c1ccccn1
- IC50 [4]: 35 µM

SMILES: CC(=O)N[C@H]1CSC(=O)[C@H](Cc2ccccc2)NC(=O)[C@H](CC(C)C)NC(=O)CCCCNC1=O (Ac-C[Ava]LF; thioester 1-C)
- IC50 ([2]; read-out: IC50): 507 µM
- IC50 ([3]; read-out: IC50): 1.14 µM

SMILES: CCCCCCCCCC(O)CC(=O)N[C@H]1CCOC1=O (stereo not given in full)
- EC50 [5]: 0.054 µM

SMILES: CCCCCCCCC(=O)N[C@H]1CCOC1=O
- IC50 [6]: 0.0124 µM

SMILES: CCCCC(=O)C(=O)[C@@H](O)CO
- IC50 [7]: 5.04 µM
- Ratio IC50 [8]: < 10

SMILES: CCCC(=O)C(=O)[C@@H](O)CO
- IC50 [7]: 5.3 µM
- Ratio IC50 [8]: < 10

SMILES: CC[C@H](C)[C@@H]1NC(=O)[C@H](Cc2ccccc2)NC(=O)[C@H](C)NC(=O)[C@@H](NC(=O)[C@@H](NC(=O)[C@H](CO)NC(=O)[C@@H](N)Cc2ccc(O)cc2)[C@@H](C)O)CSC(=O)[C@H](CSC)NC1=O (H-YSTCAFIC(Me); thioester 4-C)
- IC50 ([2]; read-out: IC50): 0.004 µM
- IC50 ([3]; read-out: IC50): 0.021 µM

SMILES: CC(C)OC(=O)CSc1nc2ccccc2[nH]1
- IC50 [9]: 62.3 µM

SMILES: CC(=O)N[C@H]1CNC(=O)[C@H](Cc2ccccc2)NC(=O)[C@H](CC(C)C)NC(=O)[C@H](CO)NC(=O)[C@H](CO)NC1=O (Ac-[Dap]SSLF; lactam 1-C)
- IC50 ([2]; read-out: IC50): 167 µM
- IC50 ([3]; read-out: IC50): 1.39 µM

SMILES: N#Cc1ccc(B(O)O)cc1
- IC50 [4]: 6 µM

SMILES: CC(=O)N[C@H]1CSC(=O)[C@H](Cc2ccccc2)N(C)C(=O)[C@H](CC(C)C)NC(=O)[C@H](CO)NC(=O)[C@H](CO)NC1=O (Ac-CSSL[NMeF]; thioester 1-C)
- IC50 [2]: Not Active
- IC50 [3]: Not Active

SMILES: [N-]=[N+]=NCCCCC(=O)C(=O)[C@@H](O)CO
- IC50 [7]: 20.3 µM

SMILES: CC(=O)N[C@H]1CSC(=O)[C@H](Cc2ccccc2)NC(=O)[C@H](CC(C)C)NC(=O)CNC(=O)CNC1=O (Ac-CGGLF; thioester 1-C)
- IC50 ([2]; read-out: IC50): 0.238 µM
- IC50 ([3]; read-out: IC50): 0.077 µM

SMILES: CC(=O)N[C@H]1CSC(=O)[C@H](Cc2ccccc2)NC(=O)[C@H](CC(C)C)NC(=O)CNC(=O)[C@H](CO)NC1=O (Ac-CSGLF; thioester 1-C)
- IC50 ([2]; read-out: IC50): 0.194 µM
- IC50 ([3]; read-out: IC50): 0.04 µM

SMILES: O=C(CCCOc1ccc(Cl)cc1)NC1CCOC1=O (stereo not given)
- IC50 [10]: 0.295 µM

SMILES: CCCCC/C=C/CCC(=O)CC(=O)N[C@H]1CCOC1=O
- EC50 [5]: 0.01 µM

SMILES: O=C(Cc1ccc(C(F)(F)F)cc1)N[C@H]1CCOC1=O
- IC50 [11]: 0.61 µM

SMILES: O=C(CCc1ccccc1)C(=O)[C@@H](O)CO
- IC50 [7]: > 50 µM

SMILES: CCCCCCCCCC(=O)CC(=O)N[C@H]1CCSC1=O
- EC50 [5]: 0.007 µM

SMILES: OB(O)c1ccc(OCc2ccccc2)cc1
- IC50 [4]: 4 µM

SMILES: Cc1ccc(B(O)O)c(F)c1
- IC50 [4]: 4 µM

SMILES: Oc1ccccc1O [CATECHOL]
- IC50 [4]: 59 µM

SMILES: CCCCCCCCCCCC(=O)N[C@H]1CCOC1=O
- EC50 [5]: 0.033 µM

SMILES: CC(=O)C(=O)[C@@H](O)CO
- EC50 (Vibrio harveyi): 3 µM

SMILES: O=C1[C@@H](O)COC1(O)C(F)(F)F (stereo not given in full)
- EC50 (Vibrio harveyi): 30 µM

SMILES: CCC(=O)C(=O)[C@@H](O)CO
- IC50 [7]: > 50 µM

SMILES: CCOC(=O)CS(=O)(=O)c1ccc(-c2ccc3c(c2)OCCO3)cc1
- IC50 [4]: 158 µM

SMILES: CCOC(=O)CS(=O)(=O)c1ccc(-c2cncc3ccccc23)cc1
- IC50 [4]: > 400 µM

SMILES: O=C(CCCCCCCCN=C=S)CC(=O)N[C@H]1CCOC1=O
- IC50 [12]: 300 µM

SMILES: CCCCCC(=O)CC(=O)N[C@H]1CCOC1=O
- Activity (Aliivibrio fischeri): 50%
- EC50 [5]: 0.15 µM
